Tests used:
Staphylococcus aureus [1] = test: MIC by microdilution in TSB broth; format: cell-based; details: S. aureus, 37°C, 20 h
Protocol: (§1) Antibacterial activity was evaluated by measuring MIC (minimum inhibitory concentration) and MBC (minimum bactericidal concentration) values. The MIC value was measured by the microdilution method using TSB broth with 96 well plates ([Carlsen et al., 1981]) and the MBC value was determined by LB plates. In brief, the overnight cultured bacteria were 1: 1000 diluted with fresh medium to get a bacterial suspension. After incubation at 37°C for 20 h, the growth of bacteria is monitored by observing the turbidity of the culture. The bacterial solution was diluted as above method and the complexes were incubated with bacterial solution for 2 h. Then 100 μL bacterial solution was taken for plate coating. The Staphylococcus aureus growth inhibition trend in the presence of complexes was obtained. The MBC values of complexes were determined by LB plates after culturing in the same method for 24 h. All experiments were controlled with sterile water and repeated in parallel at least three times.

Staphylococcus aureus [2] = test: MBC determined by LB plates; format: cell-based; details: S. aureus, 24 h
Protocol: as §1

[3] = test system: Staphylococcus aureus in biofilm; test: Killing bacteria in established biofilm; format: cell-based; details: 32 μg ml^−1; initial 8.62
Protocol: To establish bacterial biofilm, the overnight cultured Staphylococcus aureus strain was diluted 1000 times with fresh TSB medium, then the bacterial suspension was transferred to 96 well plate and cultured for 24 h. Subsequently, the supernatant was removed and the formed biofilm was washed 3 times with PBS solution. 200 μL solution containing Ru-3 of different concentrations (512, 256, 128, 64, 32, 16, 8, 4 μg ml^−1) were added and further incubated at 37°C for 24 h. Biofilm without Ru-3 were used as positive controls. Then the supernatant was discarded and the residual biofilm was cleaned using 200 μL PBS 3 times. Next, fresh medium was added to culture for 24 h ([Yang et al., 2021]). The solution after culture was diluted 1000 times and 100 μL was taken out for plate coating and counting.

Staphylococcus aureus [4] = test: Drug resistance study, 20 generations at sub inhibitory concentration; format: cell-based
Protocol: After Staphylococcus aureus was cultured for 5 h, the bacteria were diluted 1000 times with fresh TSB and the MIC of Ru-3 was measured. The bacterial solution grown at the sub inhibitory concentration of compound Ru-3 was inoculated into fresh TSB medium for 5 h, then the MIC was measured, and the above procedure was repeated for 20 generations. Ampicillin was used as the control.

[5] = test system: Staphylococcus aureus hemolysin; test: Toxin (hemolysin) secretion, rabbit blood cell hemolysis by culture supernatant; format: cell-based
Protocol: Firstly, S. aureus was cultured overnight and diluted 1000 times with fresh TSB, then a mixture of Ru-3 of 1 μg ml^−1 or 2 μg ml^−1 and Staphylococcus aureus solution was cultured in a shaking Table at 37°C for 18 h. After culturing, centrifuging (5000 rpm, 2 min) Staphylococcus aureus solution. And rabbit blood cells were prepared with PBS buffer (washing rabbit blood three times). Blood cells were collected by centrifugation (2000 rpm, 2 min). Secondly, a mixture containing 1 ml PBS buffer, 150 μL supernatant and 25 μL blood cells was cultured at 37°C for 30 min. Then cultured supernatant was obtained by centrifugation (2000 rpm, room temperature, 2 min). Finally, the optical density of the supernatant was measured at 540 nm.

Staphylococcus aureus [6] = test: Nucleic acid leakage, 260 nm absorbing material; format: cell-based; details: 4 μg/ml, 2 h
Protocol: To verify the membrane damage, the loss of 260 nm absorbing material was carried out ([Yu et al., 2021]). Briefly, overnight cultured bacteria were diluted 1:1000 in fresh TSB and shaken at 37°C for about 5 h until the exponential stage was reached. The supernatant was removed by centrifugation, then the bacteria were resuspended to OD600 = 1 with PBS, which was further treated with Ru-3 or polymyxin B and centrifuged after 2 h to precipitate bacterial cells. Subsequently, the loss of 260 nm absorbing material, including the release of DNA and RNA in the filtrate, was measured at 260 nm.

BALB/c mice = test: Acute skin irritation test, H&E; format: in vivo; details: 0.05 and 0.1 mg ml^−1, once a day for 3 days, topical
Protocol: Female BALB/c mice were randomly divided into three groups, control group, Ru-3 (0.05 mg ml^−1) group and Ru-3 (0.1 mg ml^−1). The day before the experiment, the hair on the back of female mice was removed. The compound and distilled water control were gently attached to the shaving site (about 2 cm^2) once a day for 3 days. On the fourth day, the mice were killed by cervical dislocation. The skin tissue at the site of infections were taken out and fixed in 4% paraformaldehyde at 4°C for 1 day, then embedded in paraffin. Serial sections were prepared for H&E analysis.

Staphylococcus aureus [7] = test: In vivo antibacterial activity, mouse skin infection model; set-up: species or system mice; details: cream with 50 μg ml^−1, 4 times a day, after 4 days
Protocol: S. aureus was cultured in TSB medium to exponential phase. Bacterial precipitates were collected and washed with PBS three times by centrifugation, which was diluted to OD600 = 1 (1.02 × 10^8 CFU/ml) with sterile normal saline. The day before the infection, the hair on the back of the mice was shaved off. Then depilatory cream (Veet®) was used to remove the remaining hair. Subsequently, 100 μL S. aureus was injected in subcutaneous and the abscess formed after 12 h later. All mice infected with S. aureus were divided into two groups (n = 5 in each group), including control group and treatment group, Ru-3 (0.05 mg ml^−1), which was fully mixed in sterile cream. Afterwards, mouse abscesses were treated with creams containing Ru-3 4 times a day. After 10 days, the experiment was ended. The study was conducted in strict accordance with NIH guidelines for the care and use of laboratory animals (NIH Publication No. 85–23, revised in 1985), and was reviewed and approved by the institutional animal care and use Committee of Guangxi Normal University (Guilin, China).

Staphylococcus aureus [8] = test: Membrane permeability, ONPG hydrolysis; format: cell-based; details: Ru-3 2 or 4 μg/ml vs vancomycin 2 μg/ml
Protocol: O-nitrobenzene-β-D-galactopyranoside (ONPG) was the substrate of intracellular ß-galactosidase, that was used to determine the permeability of Staphylococcus aureus cell membrane. Staphylococcus aureus was cultured to logarithmic phase, then washed and cultured in M9 lactose medium, in which lactose was used as the only carbon source of a single colony and stayed overnight at 37°C. After washing three times with PBS, the culture was diluted to OD600 = 0.3 (PBS). […] The hydrolysis of ONPG to o-nitrophenol over time was monitored by UV every 15 min at 415 nm. A similar procedure was used for untreated cells as control ([Xuan et al., 2021]).

In the case of [Ru(dmb)2PMA] (PF6)2 [Ru-3], the MIC (Staphylococcus aureus [1]) is reported as 4 µg/mL, the MBC (Staphylococcus aureus [2]) is reported as 32 µg/mL and the “number of the survival Staphylococcus aureus in the biofilm” value [3] is reported as 0 log10 colony-forming units per milliliter (CFU/ml). The “increase of MIC value after 20 generations” value (Staphylococcus aureus [4]; 20 passages at sublethal concentration) was “four”, the “MIC values against antibiotic resistant S. aureus” value (Staphylococcus aureus [4]; ampicillin, polymyxin B, tetracycline, clindamycin resistant S. aureus obtained after 20 generations) was “almost the same as the wild type” and the “Toxin reduced by” value ([5]; 1 μg ml^−1) was 38%. For the same substance, the “Toxin reduced by” value ([5]; 2 μg ml^−1) was 63%, the “Δ% Nucleic acid leakage” value (Staphylococcus aureus [6]) was 20% and the “skin irritation, H&E pathological changes” value (BALB/c mice) was “no obvious pathological abnormalities”. The “degree of wound healing” value (Staphylococcus aureus [7]) was “increased significantly” and the “plasma membrane permeability (ONPG)” value (Staphylococcus aureus [8]) was “better membrane permeability”.

Source: article PMC9589286, “Ruthenium polypyridine complexes with triphenylamine groups as antibacterial agents against Staphylococcus aureus with membrane-disruptive mechanism” (Frontiers in Chemistry, 2022)
